Results as given in patent US20040242870A1, “Antiviral methods and compounds” (priority 2000, published 2004).
pIC50: −log10 of the molar value. Read-outs that look alike come from different tables or passages of the source.

Experiments:
HIV-1 = experiment: HeLa CD4 LTR β-gal HIV-1 attachment assay; assay type: cell-based; settings: for β-galactosidase production versus background: cells alone+compounds, at all times; for pIC50: Human immunodeficiency virus 1, HeLa
Description: The attachment assay was performed with the HeLa CD4 LTR , β-gal cells available from the AIDS Research and Reference Reagent Repository. […] HeLa CD4 LTR β-gal cells express cell surface CD4 and contain an LTR β-galactosidase reporter construct. Upon infection either the Tat protein incorporated into the virion or new Tat produced following virus integration and transcription trans-activates the LTR β-gal reporter, leading to expression of the β-galactosidase enzyme. HeLa CD4 LTR β-gal cells are routinely cultured with the required selection antibiotics and screened for mycoplasma contamination. Twenty-four h prior to initiation of the assay cells were trypsinized, counted and 1×10^4 cells placed in a 0.2 cm well in media without selection antibiotics. […] A known titer of virus was then added to the wells and the incubation continued for 1 h. At the end of the incubation the wells were washed 6 times with media and the culture continued for 48 h. At 48 h the wells were washed one time with PBS and β-galactosidase enzyme expression determined by chemiluminescence per manufacturers instructions (Tropix Gal-screen™, Tropix, Bedford, Mass.). Compound toxicity was monitored on sister plates using MTS dye reduction.

HIV-1 strain RoJo = experiment: PBMC time-of-addition assay (RT in cell-free supernatant at 6 days); assay type: cell-based; settings: for increase in IC50 (loss in potency): 24 h pretreatment; for pIC50: Human immunodeficiency virus 1, PBMC
Description: Peripheral blood monocular cells (PBMCs) were obtained from normal hepatitis and HIV-1 negative donors by ficoll hypaque gradient separation. The mononuclear cells were washed to remove residual separation media, counted, viability determined and resuspended in RPMI 1640 medium supplemented with 15 % FBS (heat inactivated), 2 mM L-glutamine, 100 U/mL penicillin, 100 μg/mL streptomycin, and 10 μg/mL gentamycin with 2 μg/mL phytohemagluttin (PHA) at 1×10^6 cells/mL. The cells were cultured for 48 to 72 h at 37° C., 5% CO2. Following incubation, cells were collected by centrifugation, washed and resuspended in RPMI 1640 supplemented with 15% FBS (heat inactivated), 2 mM L-glutamine, 100 U/mL penicillin, 100 μg/mL streptomycin, and 10 μg/mL gentamycin with 20 U/mL recombinant IL-2 (R & D Systems, Minneapolis, Minn.). IL-2 was included in the culture medium to maintain the cell division initiated by the PHA mitogenic stimulation, and promote optimal growing conditions for the PBMCs. The cultures were then maintained until use by ½ culture volume change with fresh IL-2 containing medium every 3 days.
Human peripheral blood mononuclear cells from a minimum of 2 donors, that have been blasted with PHA and IL-2, were counted, viability determined by Trypan Blue dye exclusion and mixed in equal ratios. Pooled donors were used to minimize the variability observed between individual donors which results from quantitative and qualitative differences in HIV infection and overall response to the PHA and IL-2 of primary lymphocyte populations. The cells were resuspended at 1×10^6 cells/mL in RPMI 1640 without phenol red supplemented with 15% Fetal Bovine Serum (heat inactivated), 2 mM L-glutamine, 100 U/mL penicillin, 100 μg/mL streptomycin, 10 μg/Ln gentamycin and IL-2 (20 U/mL, R&D Systems, Minneapolis, Minn.). Fifty microliters of cells were then distributed to the inner 60 wells of a 96 well round bottom microtiter culture plate in a standard format developed by the Infectious Disease Research department of Southern Research Institute. Each plate contains cell control wells (cells only), virus control wells (cells plus virus), and experimental wells (drug plus cells plus virus). Alternatively, cells were cultured in T25 cm^2 or T75 cm^2 tissue culture flasks at a starting density of 1×10^6 cells per ml. Serially diluted compounds were added to the microtiter plate or tissue culture flask followed by the appropriate pre-titered strain of HIV-1. For virus replication inhibition experiments the HIV-1 strain RoJo was used. This is a low passage presumable subtype B pediatric isolate with a syncytium inducing (SI) phenotype in MT-2 cells isolated by Southern Research Institute personnel. All samples were assayed in triplicate where possible with an accompanying determination of compound toxicity. The final volume per well in the microtiter plates was 200 μL. The final volume in the tissue culture flask varied depending upon experimental design and flask size. Assays were incubated for 6 days in a humidified atmosphere at 37° C., 5% CO2, after which supernatants were collected, for analysis of RT activity and cell viability by MTS dye reduction. Culture were also examined microscopically, any abnormalities noted, and in the case of tissue culture flasks cell counts and viability determined by Trypan Blue Dye exclusion.
Time-of-addition assays were performed with PBMCs in two ways. For both assays, PBMCs were isolated and cultured under the conditions as described above. Time-of-addition assays were carried out in either a tissue culture flask format (T-75 cm^2) or in microtiter wells. In both cases due to the lack of plastic adherence and heterogeneity of the PBMC population for susceptibility to infection, it was not possible to use complete removal of virus following a timed adsorption to synchronize the infection and limit the assay to a single round of infection. […]

[1] = 4 h, −4 h pre (relative to infection)
[2] = pre-treat 0 h prior to infection
[3] = pre-treat 2 h prior to infection
[4] = pre-treat 4 h prior to infection
[5] = pre-treat 24 h prior to infection
[6] = Experiment 1, pretreat 4 h, read-out: IC50
[7] = Experiment 1, pretreat 24 h, read-out: IC50
[8] = Experiment 2, pretreat 4 h, read-out: IC50
[9] = Experiment 2, pretreat 24 h, read-out: IC50

SMILES: C=C(C)[C@@H]1CCC(C)=C[C@H]1c1c(O)cc(CCCCC)cc1O [Cannabidiol, reference compound]
- β-galactosidase production versus background (HIV-1): suppressed β-galactosidase production below background
- loss of activity (potency) (HIV-1 strain RoJo; 2 h pre-treatment, listed as cannabidiol): approximately 10 fold
- regain of potency (decrease in IC50) (HIV-1 strain RoJo; 4 h pretreatment): activity at 2, regain 3.3-fold
- regain of potency (decrease in IC50) (HIV-1 strain RoJo; 4 h pretreatment, listed as cannabidiol): 3.3 fold
- increase in IC50 (loss in potency) (HIV-1 strain RoJo): at 4 h then a 17-fold
- increase in IC50 (loss in potency) (HIV-1 strain RoJo; listed as cannabidiol): 17 fold
- pIC50 (HIV-1 strain RoJo; [1]): 4.92
- pIC50 (HIV-1 strain RoJo; 6 h, 6 h post infection): 4.92
- pIC50 (HIV-1 strain RoJo; at infection): 4.86
- pIC50 (HIV-1 strain RoJo; [2]): 6.24
- pIC50 (HIV-1 strain RoJo; [3]): 5.30
- pIC50 (HIV-1 strain RoJo; [4]): 5.82
- pIC50 (HIV-1 strain RoJo; [5]): 4.98

SMILES: COc1cc(C(C)(C)CCCC(C)C)cc(OC)c1OC [IG-07, 1-(1,1,5Trimethylhexyl)-3,4,5-trimethoxybenzene]
- pIC50 (HIV-1; Experiment 1, pretreat 0 h, read-out: IC50): < 4.30
- pIC50 (HIV-1; [6]): < 4.30
- pIC50 (HIV-1; [7]): < 4.30
- pIC50 (HIV-1; Experiment 2, pretreat 0 h, read-out: IC50): 4.80
- pIC50 (HIV-1; [8]): < 4.30
- pIC50 (HIV-1; [9]): < 4.30
- transient suppression of virus replication (HIV-1; at lower concentrations of compounds, two independent experiments): observed consistently
- β-galactosidase production versus background (HIV-1): suppressed β-galactosidase production below background
- increase in IC50 (loss in potency) (HIV-1 strain RoJo): approximately 2 fold
- pIC50 (HIV-1 strain RoJo; [1]): 4.40
- pIC50 (HIV-1 strain RoJo; 6 h, 6 h post infection): 4.34
- pIC50 (HIV-1 strain RoJo; at infection): 4.17
- pIC50 (HIV-1 strain RoJo; [2]): 5.16
- pIC50 (HIV-1 strain RoJo; [3]): 5.21
- pIC50 (HIV-1 strain RoJo; [4]): 5.28
- pIC50 (HIV-1 strain RoJo; [5]): 4.97

SMILES: CC(C)=CCCC1(C)CCc2c(O)cc(C(C)(C)CCCC(C)C)cc2O1 (centres unmarked) [IG-08, 3,4-Dihydro-2-methyl-2-(4-methyl-3-pentenyl)-7-(1,1,5-trimethylhexyl)-2H-1-benzopyran-5-ol]
- pIC50 (HIV-1; Experiment 1, pretreat 0 h): 4.80
- pIC50 (HIV-1; [6]): 4.97
- pIC50 (HIV-1; [7]): 5.13
- pIC50 (HIV-1; Experiment 2, pretreat 0 h): 6.05
- pIC50 (HIV-1; [8]): 4.96
- pIC50 (HIV-1; [9]): 5.59
- β-galactosidase production versus background (HIV-1): suppressed β-galactosidase production below background
- Comment: suppression of β-galactosidase activity (HIV-1; pretreat 0 h): Suppression of μ-galactosidase
- Comment: suppression of β-galactosidase activity (HIV-1; pretreat 4 h): Suppression of μ-galactosidase
- Comment: suppression of β-galactosidase activity (HIV-1; pretreat 24 h): Suppression of μ-galactosidase
- decrease in IC50 (HIV-1 strain RoJo; 4 h pretreatment): 4-fold decrease in
- pIC50 (HIV-1 strain RoJo; [1]): 5.21
- pIC50 (HIV-1 strain RoJo; 6 h, 6 h post infection): 4.65
- pIC50 (HIV-1 strain RoJo; at infection): 4.80
- pIC50 (HIV-1 strain RoJo; [2]): 4.85
- pIC50 (HIV-1 strain RoJo; [3]): 4.98
- pIC50 (HIV-1 strain RoJo; [4]): 5.39
- pIC50 (HIV-1 strain RoJo; [5]): 4.92
